Measurements reported in ChEMBL document CHEMBL1201862, “PubChem BioAssay data set” (2004).
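In this assay, cells in 96-well plates receive the compound at five concentrations for 48 hours. Endpoints are linearly interpolated between the surrounding concentrations. GI50 is the concentration that inhibits growth by half.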 Activity calls are given as the source filed them. Cut-off read from the data, not from the text of the source: active = GI50 up to about 1.1 µM and inactive = higher.

Columns and labels:
Experiment in all cases: NCI anticancer screen, dose series, 48 h
786-0 = tested on: 786-0
A498 = tested on: A498
A549 = tested on: A549
ACHN = tested on: ACHN
BT-549 = tested on: BT-549
CAKI-1 = tested on: CAKI-1
CCRF-CEM = tested on: CCRF-CEM
COLO 205 = tested on: COLO 205
DU-145 = tested on: DU-145
EKVX = tested on: EKVX
HCC 2998 = tested on: HCC 2998
HCT-116 = tested on: HCT-116
HCT-15 = tested on: HCT-15
HL-60 = tested on: HL-60
HOP-62 = tested on: HOP-62
HOP-92 = tested on: HOP-92
HT-29 = tested on: HT-29
Hs-578T = tested on: Hs-578T
IGROV-1 = tested on: IGROV-1
K562 = tested on: K562
KM12 = tested on: KM12
LOX IMVI = tested on: LOX IMVI
M14 = tested on: M14
MCF7 = tested on: MCF7
MDA-MB-231 = tested on: MDA-MB-231
MDA-MB-435 = tested on: MDA-MB-435
MDA-N = tested on: MDA-N
MOLT-4 = tested on: MOLT-4
Malme-3M = tested on: Malme-3M
NCI-H226 = tested on: NCI-H226
NCI-H23 = tested on: NCI-H23
NCI-H460 = tested on: NCI-H460
NCI-H522 = tested on: NCI-H522
NCI/ADR-RES = tested on: NCI/ADR-RES
OVCAR-3 = tested on: OVCAR-3
OVCAR-4 = tested on: OVCAR-4
OVCAR-5 = tested on: OVCAR-5
OVCAR-8 = tested on: OVCAR-8
PC-3 = tested on: PC-3
RPMI-8226 = tested on: RPMI-8226
RXF 393 = tested on: RXF 393
SF-268 = tested on: SF-268
SF-295 = tested on: SF-295
SF-539 = tested on: SF-539
SK-MEL-28 = tested on: SK-MEL-28
SK-MEL-5 = tested on: SK-MEL-5
SK-OV-3 = tested on: SK-OV-3
SN12C = tested on: SN12C
SNB-19 = tested on: SNB-19
SNB-75 = tested on: SNB-75
SR = tested on: SR
SW-620 = tested on: SW-620
T47D = tested on: T47D
TK-10 = tested on: TK-10
U-251 = tested on: U-251
UACC-257 = tested on: UACC-257
UACC-62 = tested on: UACC-62
UO-31 = tested on: UO-31
SK-MEL-2 = tested on: SK-MEL-2

Measured: GI50

Cc1ccc2c(c1)C(=O)C1(C2)Cc2c(C)cccc2C1=O (centres undefined)
inactive: 786-0 > 100 µM | A498 > 100 µM | A549 > 100 µM | ACHN > 100 µM | BT-549 > 100 µM | CAKI-1 > 100 µM | CCRF-CEM > 100 µM | COLO 205 > 100 µM | DU-145 > 100 µM | EKVX > 100 µM | HCC 2998 > 100 µM | HCT-116 > 100 µM | HL-60 > 100 µM | HOP-62 > 100 µM | HOP-92 > 100 µM | HT-29 > 100 µM | Hs-578T > 100 µM | IGROV-1 > 100 µM | K562 > 100 µM | KM12 > 100 µM | LOX IMVI > 100 µM | M14 > 100 µM | MCF7 > 100 µM | MDA-MB-231 > 100 µM | MDA-MB-435 > 100 µM | MDA-N > 100 µM | MOLT-4 > 100 µM | Malme-3M > 100 µM | NCI-H226 > 100 µM | NCI-H23 > 100 µM | NCI-H460 > 100 µM | NCI-H522 > 100 µM | NCI/ADR-RES > 100 µM | OVCAR-3 > 100 µM | OVCAR-4 > 100 µM | OVCAR-5 > 100 µM | OVCAR-8 > 100 µM | PC-3 > 100 µM | RPMI-8226 > 100 µM | RXF 393 > 100 µM | SF-268 > 100 µM | SF-295 > 100 µM | SF-539 > 100 µM | SK-MEL-28 > 100 µM | SK-MEL-5 > 100 µM | SK-OV-3 > 100 µM | SN12C > 100 µM | SNB-19 > 100 µM | SNB-75 > 100 µM | SR > 100 µM | SW-620 > 100 µM | T47D > 100 µM | TK-10 > 100 µM | U-251 > 100 µM | UACC-257 > 100 µM | UACC-62 > 100 µM | UO-31 > 100 µM
> 100 µM: HCT-15

C[C@]12CC[C@H]3[C@@H](CC=C4C[C@@H](N5CCCC5)CC[C@@]43C)[C@@H]1C[C@H](N1CCOCC1)[C@@H]2O
> 100 µM: HCT-15
inactive: 786-0 > 100 µM | A498 > 100 µM | A549 > 100 µM | ACHN > 100 µM | BT-549 > 100 µM | CAKI-1 > 100 µM | CCRF-CEM > 100 µM | COLO 205 > 100 µM | DU-145 > 100 µM | EKVX > 100 µM | HCC 2998 > 100 µM | HCT-116 > 100 µM | HL-60 98.4 µM | HOP-62 > 100 µM | HOP-92 > 100 µM | HT-29 44.5 µM | Hs-578T > 100 µM | IGROV-1 > 100 µM | K562 22.5 µM | KM12 > 100 µM | LOX IMVI > 10 µM | M14 > 10 µM | MCF7 > 10 µM | MDA-MB-231 > 100 µM | MDA-MB-435 61.2 µM | MDA-N > 100 µM | MOLT-4 > 100 µM | Malme-3M > 100 µM | NCI-H226 > 100 µM | NCI-H23 > 100 µM | NCI-H460 > 100 µM | NCI-H522 > 100 µM | NCI/ADR-RES > 100 µM | OVCAR-3 > 100 µM | OVCAR-4 > 100 µM | OVCAR-5 > 100 µM | OVCAR-8 > 100 µM | PC-3 > 100 µM | RPMI-8226 > 100 µM | RXF 393 > 100 µM | SF-268 > 100 µM | SF-295 > 100 µM | SF-539 > 100 µM | SK-MEL-28 > 100 µM | SK-MEL-5 > 100 µM | SK-OV-3 > 100 µM | SN12C > 100 µM | SNB-19 > 100 µM | SNB-75 > 100 µM | SR 23.4 µM | SW-620 > 100 µM | T47D > 100 µM | TK-10 > 100 µM | U-251 > 100 µM | UACC-257 > 100 µM | UACC-62 > 100 µM | UO-31 > 100 µM

CC(C)(C)c1ccc(-c2nc3ccc([N+](=O)[O-])cc3c(=O)o2)cc1
22.6 µM: HCT-15
inactive: 786-0 26.8 µM | A498 29.9 µM | A549 28.9 µM | ACHN 21.9 µM | BT-549 24.1 µM | CAKI-1 50.4 µM | CCRF-CEM 20.1 µM | COLO 205 24.4 µM | DU-145 32.7 µM | EKVX 25.4 µM | HCC 2998 12.9 µM | HCT-116 23.4 µM | HL-60 25.5 µM | HOP-62 22.2 µM | HOP-92 15.6 µM | HT-29 24.7 µM | Hs-578T 25.2 µM | IGROV-1 44.2 µM | K562 19.1 µM | KM12 20 µM | LOX IMVI 15.3 µM | M14 26.5 µM | MCF7 34.1 µM | MDA-MB-231 27.5 µM | MDA-MB-435 25.1 µM | MDA-N 31.6 µM | MOLT-4 18.7 µM | Malme-3M 28.9 µM | NCI-H23 28.7 µM | NCI-H460 36.4 µM | NCI-H522 20.1 µM | NCI/ADR-RES 25.4 µM | OVCAR-3 27.4 µM | OVCAR-4 17.6 µM | OVCAR-5 32.8 µM | OVCAR-8 20.9 µM | PC-3 21.2 µM | RPMI-8226 30.9 µM | RXF 393 42.6 µM | SF-268 35.7 µM | SF-295 20.8 µM | SF-539 17.1 µM | SK-MEL-28 34.4 µM | SK-MEL-2 20.7 µM | SK-MEL-5 27.2 µM | SK-OV-3 31.5 µM | SN12C 40.1 µM | SNB-19 21.5 µM | SNB-75 24.9 µM | SR 22.7 µM | SW-620 31 µM | T47D 40.5 µM | TK-10 38.8 µM | U-251 15 µM | UACC-257 29.6 µM | UACC-62 24.5 µM | UO-31 32.9 µM
